Measured values published in patent US5411965A, “Use of delta opioid receptor antagonists to treat cocaine abuse” (Arizona Board of Regents, priority 1993, dated 1995).
Entries after “also recorded” stand apart in the source; their conditions may differ.

Key:
delta opioid receptor = delta opioid receptor (Mus musculus, UniProt P32300); assay: Antagonism of DADLE in the mouse vas deferens (MVD) preparation; type: cell-based; details: in words
Description: Furthermore, the MVD responds selectively to delta opioids.
(§1) 2. Mouse Vas Deferens (MVD). […] The organ bath was maintained at 37° C.

mu opioid receptor = details: agonist morphine in GPI; antagonist 100 or 200 nM, 15 min; read-out: Ke; cited from earlier work
kappa opioid receptor = details: agonist ethylketazocine in GPI; antagonist 100 or 200 nM, 15 min; read-out: Ke, EK; cited from earlier work
[1] = cited from earlier work
[2] = type: in vivo, rats
Description: When rats are fixed with chronically indwelling bipolar electrodes for electrical stimulation of the medial forebrain bundle, they will press levers for brief durations of stimulation. The higher the intensity of stimulation, the greater the pressing. […] These relationships plus extant theory provide the rationale for using pressing for brain stimulation as a means of assessing the reinforcing effects of drugs and assessing which drugs might affect another drug's reinforcing effects.
The particulars of the procedures used herein are briefly summarized. Further information is in Reid (cited above) and Reid et al. (Life Sciences, 52, PL67-71 (1993)). Rats were fixed with chronically indwelling bipolar electrodes. Using standard stereotaxic methods, which includes full anesthesia, the tips of the electrode were aimed to stimulate the medial forebrain bundle as it traverses the lateral hypothalamus. With the skull held in a stereotaxic instrument so that a plane between bregma and lamba was perpendicular to the shaft of the electrode, the following stereotaxic coordinates were used: 3.5 mm posterior to brema, 1.6 mm lateral to the midline, and 8.6 mm below the surface of the skull.
The apparatus of these tests was a Skinner box (24×30 ×38 cm) equipped with a lever (2.5×2 cm). Each box was fixed with electrical leads and a slip-ring apparatus that allowed the rat to be connected to the electrical stimulator for intracranial stimulation, but allowed the rat to move freely in the box.
Upon full recovery from surgery, rats were trained to press a lever in the Skinner box for electrial stimulation of the brain. The electrical stimulation was 60 Hz sine waves of 0.3 sec. The maximum intensity used was of 50 microAmps. Each lever press delivered one 0.3-sec of brain stimulation.
Just after rats learned to press the lever, the intensity of the brain stimulation was varied. Three intensities were chosen. The lowest intensity was one that was barely sufficient to sustain lever pressing. The highest intensity sustained high rates of pressing, but not the highest rates that a rat can achieve. The medium intensity was about midway between the lowest and the highest. Once a set of intensities were established for each rat, those intensities remained fixed throughout the balance of testing. […] Each rat was under a daily regimen. They were allowed to press for each of three intensities of brain stimulation for 10 minutes. […] They were allowed to press the lever under this daily regimen under level-pressing rates became stable. Then, drugs (or placebos) were administered.
The methods of Example 5 were nearly the same as those of Example 4. Rats were fixed, using standard procedures, with chronically indwelling electrodes for stimulation of the medial forebrain bundle. Subsequent to recovery from surgery, they were trained to press for brain stimulation. After each learned to press, they were put on a daily regimen. That daily regimen involved pressing for 5 min at a high intensity of brain stimulation, followed by 5-minute sessions with medium, low, low, medium and then high intensity. Intensities were set for each rat so that pressing rate for the low intensity was rather slow (the low intensity being near lower threshold for maintaining pressing), pressing for the high intensity was at a high rate, and pressing for the medium intensity was between the rate for low and high intensity. Pressing at each intensity was averaged for an index of rat's responsiveness at that intensity.

[3] = system: mouse vas deferens (MVD) and guinea pig ileum (GPI); assay: Agonist activity in MVD and GPI preparations; type: cell-based; details: in words
Description: 1. Guinea Pig Ileal Longitudinal Muscle (GPI). Ilea from guinea pigs were taken approximately 10 cm from the ileocaecal junction, and a strip of longitudinal muscle with the myenteric plexus attached was prepared by method of Rang et al., Brit. J. Pharmacol., 22, 356 (1964), the disclosure of which is incorporated by reference herein. A 1 cm portion of this strip was then mounted between two platinum electrodes placed in a 10 ml organ bath and connected to an isometric transducer. Contractions were recorded on a polygraph. […] The organ bath was maintained at 36°-37° C. The longitudinal muscle strip was allowed to equilibrate with continuous stimulation for a minimum of 90 min.
as §1

delta opioid receptor, sequence (P32300 whole entry): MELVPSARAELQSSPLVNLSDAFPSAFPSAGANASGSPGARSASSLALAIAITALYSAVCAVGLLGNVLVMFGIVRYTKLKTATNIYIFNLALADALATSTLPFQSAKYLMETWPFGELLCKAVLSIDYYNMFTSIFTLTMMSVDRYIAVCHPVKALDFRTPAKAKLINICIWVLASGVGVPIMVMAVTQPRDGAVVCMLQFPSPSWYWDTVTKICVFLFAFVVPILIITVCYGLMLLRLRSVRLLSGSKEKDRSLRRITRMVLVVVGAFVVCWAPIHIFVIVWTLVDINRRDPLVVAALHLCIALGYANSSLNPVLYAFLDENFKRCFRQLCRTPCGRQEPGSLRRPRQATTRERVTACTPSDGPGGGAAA

| Compound | Kb (mu opioid receptor) [nM] | Kb (kappa opioid receptor) [nM] | also measured |
| --- | --- | --- | --- |
| Oc1ccc2c3c1O[C@H]1c4oc5ccccc5c4C[C@@]4(O)[C@@H](C2)N(CC2CC2)CC[C@]314 [Compound 8, 17-(cyclopropylmethyl)-6,7-dehydro-3,14β-dihydroxy-4,5α-epoxy-6,7-2',3'-benzo[b]furanomorphinan] | 30.8 | 50.8 | delta antagonist potency and selectivity (delta opioid receptor): less potent and less selective than 1 as a delta antagonist, nevertheless retains substantial delta antagonist activity |
| Cc1cccc2c3c([nH]c12)[C@@H]1Oc2c(O)ccc4c2[C@@]12CCN(CC1CC1)[C@H](C4)[C@]2(O)C3 [Compound 13] | 19.1 | > 330 |  |
| O=[N+]([O-])c1ccc2[nH]c3c(c2c1)C[C@@]1(O)[C@H]2Cc4ccc(O)c5c4[C@@]1(CCN2CC1CC1)[C@H]3O5 [Compound 6] | 92 | ≥ 200 |  |
| Oc1ccc2c3c1O[C@H]1c4[nH]c5c(F)cccc5c4C[C@@]4(O)[C@@H](C2)N(CC2CC2)CC[C@]314 [Compound 11] | 5.3 | > 330 |  |
| COc1cccc2c3c([nH]c12)[C@@H]1Oc2c(O)ccc4c2[C@@]12CCN(CC1CC1)[C@H](C4)[C@]2(O)C3 [Compound 14] | 35 |  |  |
| Oc1ccc2c3c1O[C@H]1c4nc5ccccc5cc4C[C@@]4(O)[C@@H](C2)N(CC2CC2)CC[C@]314 [Compound 17] | 11.3 | 16.3 | delta antagonist potency and selectivity (delta opioid receptor): A similar relationship was observed |
| O=C1CC[C@@]2(O)[C@H]3Cc4ccc(O)c5c4[C@@]2(CCN3CC2CC2)[C@H]1O5 [naltrexone] |  |  | conditioned place aversion ([1]; given alone, literature): condition place aversions; effect on MDMA's conditioned place preference ([1]; rat, in vivo): attenuated but not blocked; effect on cocaine's conditioned place preference ([1]; rat, in vivo): attenuate cocaine's reinforcing properties |
| Cc1ccc2[nH]c3c(c2c1)C[C@@]1(O)[C@H]2Cc4ccc(O)c5c4[C@@]1(CCN2CC1CC1)[C@H]3O5 [Compound 5] | > 160 | > 250 |  |
| Oc1ccc2[nH]c3c(c2c1)C[C@@]1(O)[C@H]2Cc4ccc(O)c5c4[C@@]1(CCN2CC1CC1)[C@H]3O5 [Compound 9] | 27.2 | 68.5 |  |
| CNC(C)Cc1ccc2c(c1)OCO2 (centres unmarked) [MDMA, N-monomethyl-3,4-methylenedioxyphenylisopropylamine, reference compound] |  |  | mean presses at High intensity, MDMA plus Placebo ([2]; High intensity of intracranial stimulation, six rats): 922 presses per ten minutes; mean presses at Low intensity, MDMA plus Placebo ([2]; Low intensity of intracranial stimulation, six rats): 288 presses per ten minutes; mean presses at Medium intensity, MDMA plus Placebo ([2]; Medium intensity of intracranial stimulation, six rats): 563 presses per ten minutes; pressing for brain stimulation, MDMA alone ([2]; in words): increased pressing; average increase in pressing, MDMA ([2]; low intensity, factor): four times; conditioned place preference ([1]; drug alone, literature): produces a conditioned place preference among rats |
| O=C1C(=Cc2ccccc2)C[C@@]2(O)[C@H]3Cc4ccc(O)c5c4[C@@]2(CCN3CC2CC2)[C@H]1O5 [BNTX, 7-benzylidenenaltrexone] |  |  | pressing for brain stimulation, BNTX plus cocaine ([2]; rat, in vivo): reduced cocaine's (5 mg/kg) facilitation of pressing for rewarding brain stimulation in a fashion similar to the reduction observed for NTI; also recorded: extraordinarily effective in blocking cocaine's salient effects |
| Oc1ccc2c3c1O[C@H]1c4nc5ccccc5nc4C[C@@]4(O)[C@@H](C2)N(CC2CC2)CC[C@]314 [Compound 16] | 6.1 | 13.4 | delta antagonist potency and selectivity (delta opioid receptor): A similar relationship was observed |
| COc1ccc2[nH]c3c(c2c1)C[C@@]1(O)[C@H]2Cc4ccc(O)c5c4[C@@]1(CCN2CC1CC1)[C@H]3O5 [Compound 4] | 63 | 12.6 |  |
| Oc1ccc2c3c1O[C@H]1c4[nH]c5cccc(F)c5c4C[C@@]4(O)[C@@H](C2)N(CC2CC2)CC[C@]314 [Compound 10] | > 125 | > 170 |  |
| Cn1c2c(c3ccccc31)C[C@@]1(O)[C@H]3Cc4ccc(O)c5c4[C@@]1(CCN3CC1CC1)[C@H]2O5 [Compound 2] | 12.5 | 22.2 |  |
| Oc1ccc2c3c1O[C@H]1c4[nH]c5ccc(F)cc5c4C[C@@]4(O)[C@@H](C2)N(CC2CC2)CC[C@]314 [Compound 3] | 61.7 | 46.2 |  |
| CC(N)Cc1ccccc1 (centres unmarked) [Amphetamine, phenylisopropylamine, reference compound] |  |  | pressing for brain stimulation, amphetamine alone ([2]; rat, in vivo): produced an increment in pressing; also recorded: produced increased pressing compared to pressing under the influence of placebo |
| CN1CC[C@]23c4c5ccc(O)c4O[C@H]2c2[nH]c4ccccc4c2C[C@@]3(O)[C@H]1C5 [Compound 7] |  |  | antagonism of the effect of the delta agonist DADLE (delta opioid receptor): inactive; agonist activity [3]: exhibited partial agonist activity |
